# Source: patent US20150143553A1, “Methods And Compositions Comprising A Drosophila Model Of Amyotrophic Lateral Sclerosis” (priority 2013, published 2015)
# Counter-ions that a name gives are not always drawn.
# Test system: Drosophila larvae expressing wild-type TDP-43 in motor neurons
# Assay: Drug screen: rescue of lethality caused by wild-type TDP-43 expression in motor neurons (D42 Gal4)
# Assay type: in vivo
# Conditions: transgene WT2; 30 μM in fly food
# Excerpt: […] Larvae expressing TDP-43 (wild type or mutant, as shown) are raised on drug containing food.
# […] Larvae expressing TDP-43 (wt or mutant) were raised on drug containing food.
# Using a Drosophila model of ALS based on TDP-43 that recapitulates several aspects of the disease pathophysiology (33, 35), a drug screen aimed at identifying FDA approved compounds with neuroprotective potential in vivo were designed (FIG. 37A). […] This phenotype was used to screen for drug candidates with therapeutic potential as determined by their ability to rescue pupal lethality and produce viable adults with extended wings (FIG. 37A). […]
# UAS TDP-43 males were crossed with D42-Gal4 female virgins on fly food containing either DMSO or pioglitazone. For DMSO controls, the same volume of DMSO as the corresponding drug concentration was added. Bromophenol blue was added to a final concentration of approximately 0.02% to ensure homogeneity. Crosses were made on drug food with 3 female virgins and 2 males in each vial, and were maintained at 25° C. unless noted. The parents were discarded after 5-7 days then the vials were screened for adult progeny with straight wings from day 14 to day 25. All adults were screened for TDP-43 expression by visualizing the YFP tag. Total number of pupae was counted on day 25. Percent survival was calculated using the formula (total number of straight-winged adults/total number of pupae)×100. All experiments were performed in triplicate.
row,Structure (SMILES),Preliminary rescue result: adults with normal wings
1,"Cl.NCC(O)c1ccc(O)cc1 (racemic) [(+,−)-Octopamine HCl]",5 Adult Normal Wings Adults
2,CC(=O)Oc1ccccc1C(=O)O [Acetylsalicylic Acid],1/1
3,CCC(=O)OCC(=O)[C@@]1(OC(=O)CC)[C@H](C)C[C@H]2[C@H]3[C@H]([C@@H](O)C[C@@]21C)[C@@]1(C)C=CC(=O)C=C1C[C@H]3Cl [Alclometasone Dipropionate],2 Adult Normal Wings Adults
4,CCCCC(CC)CNC(=N)NC(=N)NCCCCCCNC(=N)NC(=N)NCC(CC)CCCC (stereo not drawn) [Alexidine Dihydrochloride],6 Adults Normal Wings
5,CC(=O)OCC(=O)[C@@]12OC3(CCCC3)O[C@@H]1C[C@H]1[C@@H]3CCC4=CC(=O)C=C[C@]4(C)[C@@]3(F)[C@@H](O)C[C@@]12C [Amcinonide],1/1
6,CN(C)CCCO[C@@H]1[C@H]2OC(C)(C)O[C@H]2O[C@@H]1[C@H](O)CO [Amiprilose HCl],1 Adult Normal Wings Adults
7,Nc1cc(-c2ccncc2)c[nH]c1=O [Amrinone],1 Adult Normal Wings Adults
8,CC(C)c1c(C(=O)Nc2ccccc2)c(-c2ccccc2)c(-c2ccc(F)cc2)n1CC[C@@H](O)C[C@@H](O)CC(=O)O [Atorvastatin],1 Adult Normal Wings Adults
9,CC[C@H]1OC(=O)[C@H](C)[C@@H](O[C@H]2C[C@@](C)(OC)[C@@H](O)[C@H](C)O2)[C@H](C)[C@@H](O[C@@H]2O[C@H](C)C[C@H](N(C)C)[C@H]2O)[C@](C)(O)C[C@@H](C)CN(C)[C@H](C)[C@@H](O)[C@]1(C)O [Azithromycin],1 Adult Normal Wings Adults
10,CC1(C)S[C@@H]2[C@H](NC(=O)[C@H](NC(=O)N3CCNC3=O)c3ccccc3)C(=O)N2[C@H]1C(=O)[O-].[Na+] [Azlocillin Na Salt],1 Adult Normal Wings Adults
11,CN1[C@@H]2CC[C@H]1C[C@@H](OC(c1ccccc1)c1ccccc1)C2 [Benztropine Mesylate],2 Adult Normal Wings Adults
12,C[N+](C)(CCOc1ccccc1)Cc1ccccc1.O=C([O-])c1cc2ccccc2cc1O [BepheniμM Hydroxynaphthoate],2 Adult Normal Wings Adults
13,COc1ccccc1OCCNCC(O)COc1cccc2[nH]c3ccccc3c12 (stereo not drawn) [Carvedilol],1 Adult Normal Wings Adults
14,Cn1nnnc1SCC1=C(C(=O)[O-])N2C(=O)[C@@H](NC(=O)[C@H](O)c3ccccc3)[C@H]2SC1.[Na+] [Cefamandole Na Salt],2/3 Adult Normal Wing
15,CO/N=C(\C(=O)N[C@@H]1C(=O)N2C(C(=O)O)=C(C[N+]3(C)CCCC3)CS[C@H]12)c1csc(N)n1 [Cefepime Hydrochloride],2 Adult Normal Wings Adults
16,CO[C@@]1(NC(=O)Cc2cccs2)C(=O)N2C(C(=O)O)=C(COC(N)=O)CS[C@@H]21 [Cefoxitin Sodium Salt],1 Adult Normal Wings Adults
17,COCCOC(=O)C1=C(C)NC(C)=C(C(=O)OC/C=C/c2ccccc2)C1c1cccc([N+](=O)[O-])c1 (stereo not drawn) [Cilnidipine],2 Adult Normal Wings Adults

row,Structure (SMILES),Preliminary rescue result: adults with normal wings
1,NC1CCN(c2c(F)cc3c(=O)c(C(=O)O)cn(C4CC4)c3c2Cl)C1 (stereo not drawn) [Clinafloxacin],4 Adult Normal Wings Adults
2,CC(C)(Oc1ccc(Cl)cc1)C(=O)O [Clofibric Acid],2 Adult Normal Wings Adults
3,Clc1ccc(C(OCCN2CCCCC2)c2ccccc2)cc1 (stereo not drawn) [Cloperastine HCl],1 Adult Normal Wings Adults
4,NS(=O)(=O)c1cc2c(cc1Cl)NC(CC1CCCC1)NS2(=O)=O (stereo not drawn) [Cyclopenthiazide],1 Adult Normal Wings Adults
5,NC(=O)C(c1ccccc1)(c1ccccc1)[C@@H]1CCN(CCc2ccc3c(c2)CCO3)C1 [Darifenacin Hydrobromide],3 Adult Normal Wings Adults
6,C[C@]12CC[C@H]3[C@@H](CCC4=CC(=O)CC[C@@]43C)[C@@H]1CC[C@@H]2C(=O)CO [Deoxycorticosterone],1 Adult Normal Wings Adults
7,NS(=O)(=O)c1cc(Cl)c(Cl)c(S(N)(=O)=O)c1 [Dichlorphenamide],2 Adult Normal Wings Adults
8,COc1ccc(C(=O)c2ccccc2O)c(O)c1 [Dioxybenzone],14 Adult Normal Wings Adults
9,COc1cc2nc(N3CCN(C(=O)C4COc5ccccc5O4)CC3)nc(N)c2cc1OC (stereo not drawn) [Doxazosin Mesylate],1 Adult Normal Wings Adults
10,CCN(CC)CCOC(=O)C(c1ccccc1)C1CCCCC1 (stereo not drawn) [Drofenine HCl],1 Adult Normal Wings Adults
11,CCCCC(=O)O[C@H]1CC[C@H]2[C@@H]3CCc4cc(O)ccc4[C@H]3CC[C@]12C [Estradiol Valerate],1 Adult Normal Wings Adults
12,C#C[C@]1(O)CC[C@H]2[C@@H]3CCc4cc(OC)ccc4[C@H]3CC[C@@]21C [Ethynyletradiol 3-Methyl Ether],5 Adult Normal Wings Adults
13,CCNCC(O)c1cccc(O)c1.Cl (stereo not drawn) [Etilifrine Hydrochloride],1 Adult Normal Wing Adults
14,CC1CC(OC(=O)C(O)c2ccccc2)CC(C)(C)N1C (stereo not drawn) [Eucatropine HCl],1 Adult Normal Wings Adults
15,O=C(O)Cc1ccc(-c2ccccc2)cc1 [Felbinac],1 Adult Normal Wings Adults
16,CC(C(=O)[O-])c1cccc(Oc2ccccc2)c1.CC(C(=O)[O-])c1cccc(Oc2ccccc2)c1.O.O.[Ca+2] (stereo not drawn) [Fenoprofen Ca Salt Dihydrate],2 Adult Normal Wings Adults
17,CC(C)(C(=O)O)c1ccc(C(O)CCCN2CCC(C(O)(c3ccccc3)c3ccccc3)CC2)cc1 (stereo not drawn) [Fexofenadine Hcl],1 Adult Normal Wings Adults

# Same assay, conditions: transgene WT2; 50 μM in fly food
row,Structure (SMILES),Preliminary rescue result: adults with normal wings
1,COC(c1ccccc1)(c1ccccc1)[C@H](Oc1nc(C)cc(C)n1)C(=O)O [Amrisentan],1 Adult Normal Wings Adults
2,O=C1c2c(O)cccc2Cc2cccc(O)c21 [Anthralin],1 Adult Normal Wings Adults
3,CCCCOc1cc(C(=O)OCCN(CC)CC)ccc1N [Benoxinate Hydrochloride],1 Adult Normal Wings Adults
4,CC(C)NCC(O)COc1ccc(COCCOC(C)C)cc1.CC(C)NCC(O)COc1ccc(COCCOC(C)C)cc1.O=C(O)/C=C/C(=O)O (stereo not drawn) [Beoprolol Fumarate],1 Adult Normal Wings Adults
5,C=CCC1(CC(C)C)C(=O)NC(=O)NC1=O [Butalbital],1 Adult Normal Wings Adults
6,COC(=O)N/N=C/c1c[n+]([O-])c2ccccc2[n+]1[O-] [Carbadox],1 Adult Normal Wings Adults
7,CC(C)(C)NCC(O)COc1cccc2c1CCC(=O)N2 (stereo not drawn) [Carteolol HCl],2 Adults Normal Wings
8,Cc1ccc(-c2cc(C(F)(F)F)nn2-c2ccc(S(N)(=O)=O)cc2)cc1 [Celecoxib],1 Adult Normal Wings Adults
9,CN(C)CC/C=C1/c2ccccc2Sc2ccc(Cl)cc21 [Chlorprothixene],3 Adults Normal Wings
10,O=P(O)(O)C(Cl)(Cl)P(=O)(O)O [Clodronate],3 Adult Normal Wings Adults
11,Cc1cc(C(C#N)c2ccc(Cl)cc2)c(Cl)cc1NC(=O)c1cc(I)cc(I)c1O (stereo not drawn) [Closantel],2 Adults Normal Wings
12,Clc1ccccc1C(c1ccccc1)(c1ccccc1)n1ccnc1 [Clotrimazole],1 Adult Normal Wings Adults
13,CN1CCN(C(c2ccccc2)c2ccccc2)CC1 [Cyclizine Hcl],1 Adult Normal Wings Adults
14,CCCCOc1cc(C(=O)NCCN(CC)CC)c2ccccc2n1 [Dibucaine],1 Adult Normal Wings Adults
15,Cc1onc(-c2c(Cl)cccc2Cl)c1C(=O)N[C@@H]1C(=O)N2[C@@H]1SC(C)(C)[C@@H]2C(=O)O [Dicloxacillin Sodium Salt],1 Adult Normal Wings Adults
16,CCn1cc(C(=O)O)c(=O)c2cc(F)c(N3CCNCC3)nc21 [Enoxacin],3 Adult Normal Wings Adults
17,CCN(CC)C(=O)c1ccc(O)c(OC)c1 [Ethamivan],1 Adult Normal Wings Adults
18,O=C(COc1ccc(Cl)cc1)N1CCN(Cc2ccc3c(c2)OCO3)CC1 [Fipexide Hydrochloride],1 Adult Normal Wings Adults
19,OC(Cn1cncn1)(Cn1cncn1)c1ccc(F)cc1F [Fluconazole],1 Adult Normal Wings Adults
20,C[C@]12CCC(=O)C=C1CC[C@H]1[C@@H]3CC[C@](O)(C(=O)CO)[C@@]3(C)C[C@H](O)[C@@]12F [Fludrocortisone],2 Adults Normal Wings
